Experiments:
[1] = test system: PMA-induced ear thickening and ear weight gain; assay: PMA-induced ear inflammation model (Example 1); type: in vivo, BALB/c; settings: 6 hours post PMA, topical 0.5% w/v on both ears 30 min before and 15 min after PMA
Protocol: Animals in group 2, 3, and 4 receive dexamethasone, Crisaborole and the compound of Formula (I), respectively (as a solution in acetone and ethanol by 1:1 ratio), 30 min before PMA challenge, on both ears.
• −24 hr—Randomization (body weight based) • −30 min—Treatment Topical • 0 min—Disease Induction PMA application • 15 min—Treatment Topical • 6 hr—Skin Thickness, Skin Collection (Cohort 1) • 24 hr—Skin Thickness, Skin Collection (Cohort 2)
5 μg/20 μl/right ear and 5 μg/20 μl/left ear (2.5 μg/10 μl in anterior and posterior surface of both ears)
Phorbol 12-myristate 13-acetate (PMA) is formulated in acetone at a concentration of 250 μg/ml. This working solution is applied topically to the anterior and posterior surface of both the ear (10 μl each side).
Ear thickness (both right and left ear): at −1 hr (before PMA challenge), 6 hr and 24 hrs post PMA challenge.
At 6 hr and 24 hrs, respective cohort of animals are euthanized, and ear tissues are collected. […] Left ears are collected and preserved in 10% NBF for Histopathology.

[2] = target: T1, Phosphodiesterase PDE11A4 (Homo sapiens, UniProt Q9HCR9); assay: Phosphodiesterase PDE11A4 enzyme assay; type: biochemical; settings: N=2, Example 3
T1 construct: host or cells: insect Sf9 cells
T1 sequence (Q9HCR9 whole entry): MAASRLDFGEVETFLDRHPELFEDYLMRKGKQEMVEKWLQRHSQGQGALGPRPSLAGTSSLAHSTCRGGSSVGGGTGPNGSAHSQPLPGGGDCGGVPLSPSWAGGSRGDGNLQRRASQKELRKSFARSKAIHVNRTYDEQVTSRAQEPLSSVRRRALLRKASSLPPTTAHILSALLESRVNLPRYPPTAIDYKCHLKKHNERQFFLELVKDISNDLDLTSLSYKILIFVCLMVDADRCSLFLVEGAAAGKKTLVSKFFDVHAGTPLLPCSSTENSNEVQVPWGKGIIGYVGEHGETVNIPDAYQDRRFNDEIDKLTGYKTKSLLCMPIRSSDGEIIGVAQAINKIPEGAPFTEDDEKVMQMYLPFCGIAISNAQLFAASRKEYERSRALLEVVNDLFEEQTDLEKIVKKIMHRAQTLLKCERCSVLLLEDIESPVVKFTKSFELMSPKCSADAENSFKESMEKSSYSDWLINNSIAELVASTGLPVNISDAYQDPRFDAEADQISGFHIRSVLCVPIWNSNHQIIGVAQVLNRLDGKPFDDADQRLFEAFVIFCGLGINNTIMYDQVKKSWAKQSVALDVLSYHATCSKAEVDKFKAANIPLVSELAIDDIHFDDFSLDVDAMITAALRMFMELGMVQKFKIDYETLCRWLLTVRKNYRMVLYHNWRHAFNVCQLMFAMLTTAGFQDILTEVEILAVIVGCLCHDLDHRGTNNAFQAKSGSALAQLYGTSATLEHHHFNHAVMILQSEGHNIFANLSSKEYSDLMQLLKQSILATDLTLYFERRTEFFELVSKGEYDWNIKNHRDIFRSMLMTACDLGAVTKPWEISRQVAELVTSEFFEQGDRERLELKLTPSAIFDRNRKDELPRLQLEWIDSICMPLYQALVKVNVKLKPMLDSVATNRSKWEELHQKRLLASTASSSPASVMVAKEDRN
Text: (§1) Reference standards are run as an integral part of each assay to ensure the validity of the results obtained. Reference Compounds: • Phosphodiesterase PDE10A2 Papaverine • Phosphodiesterase PDE11A4 Dipyridamole • Phosphodiesterase PDE1A MMPX • Phosphodiesterase PDE2A EHNA • Phosphodiesterase PDE3A Cilostamide • Phosphodiesterase PDE4A1A Rolipram • Phosphodiesterase PDE4B1 Rolipram • Phosphodiesterase PDE5A Zaprinast • Phosphodiesterase PDE6 Zaprinast • Phosphodiesterase PDE7A IBMX • Phosphodiesterase PDE7B IBMX • Phosphodiesterase PDE8A1 Dipyridamole • Phosphodiesterase PDE9A2 Zaprinast
(§2) Phosphodiesterase PDE4A1A; Phosphodiesterase PDE4B1; Phosphodiesterase PDE10A2; Phosphodiesterase PDE11A4; Phosphodiesterase PDE2A; Phosphodiesterase PDE3A; Phosphodiesterase PDE7A; Phosphodiesterase PDE7B; and Phosphodiesterase PDE8A1: • Source: Human recombinant insect Sf9 cells • Substrate: 0.10 μM FAM-cAMP • Vehicle: 1.00% DMSO • Significance Crit.: ≥50% of max stimulation or inhibition • Incubation Buffer: 10 mM Tris-HCl, pH 7.2, 10 mM MgCl2, 0.05% NaN3, 0.1% phosphate-free BSA • Quantitation Method: Quantitation of Fluorescein-AMP-IMAP • Pre-Incub. Time/Temp: 15 minutes @25° C. • Incubation Time/Temp: 30 minutes @25° C.
(§3) IC50 values are determined by a non-linear, least squares regression analysis using MathIQ™ (ID Business Solutions Ltd., UK). […]

[3] = Plasma and ear skin concentration in IMQ model, day 6; type: in vivo, BALB/c mice; settings: day 6, post 2h treatment, topical 0.5%
Protocol: On day 6, blood is collected by retro-orbital bleeding under isoflurane anesthesia prior to euthanasia. Blood is collected in K2-EDTA tubes and plasma is separated and stored at −80° C. for further analysis (for test item concentration).
On day 6, post 2h treatment, plasma and ear skin concentration of animals treated with the compound of Formula (I) are estimated. […] The concentration in the ear skin is close to 976-fold more than the plasma levels.

Phosphodiesterase PDE7A = target: T2, Phosphodiesterase PDE7A (Homo sapiens, UniProt Q13946); assay: Phosphodiesterase PDE7A enzyme assay; type: biochemical; settings: N=2, Example 3
T2 construct: host or cells: insect Sf9 cells
T2 sequence (Q13946 whole entry): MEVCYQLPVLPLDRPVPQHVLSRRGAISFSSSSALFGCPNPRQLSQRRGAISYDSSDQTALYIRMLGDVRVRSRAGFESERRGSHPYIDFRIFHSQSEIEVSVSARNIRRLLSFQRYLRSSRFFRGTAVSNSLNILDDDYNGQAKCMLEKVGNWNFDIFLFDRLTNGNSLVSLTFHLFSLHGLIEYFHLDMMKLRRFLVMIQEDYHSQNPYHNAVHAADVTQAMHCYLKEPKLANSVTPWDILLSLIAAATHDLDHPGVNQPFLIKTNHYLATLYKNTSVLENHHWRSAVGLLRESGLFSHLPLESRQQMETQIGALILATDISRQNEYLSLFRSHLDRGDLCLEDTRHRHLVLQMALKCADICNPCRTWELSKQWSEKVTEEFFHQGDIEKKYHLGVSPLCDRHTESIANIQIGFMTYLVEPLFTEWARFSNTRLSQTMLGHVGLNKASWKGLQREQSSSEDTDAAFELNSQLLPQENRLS
Text: as §1, §2, §3

Phosphodiesterase PDE8A1 = target: T3, Phosphodiesterase PDE8A1 (Homo sapiens, UniProt O60658); assay: Phosphodiesterase PDE8A1 enzyme assay; type: biochemical; settings: N=2, Example 3
T3 construct: host or cells: insect Sf9 cells
T3 sequence (O60658 whole entry): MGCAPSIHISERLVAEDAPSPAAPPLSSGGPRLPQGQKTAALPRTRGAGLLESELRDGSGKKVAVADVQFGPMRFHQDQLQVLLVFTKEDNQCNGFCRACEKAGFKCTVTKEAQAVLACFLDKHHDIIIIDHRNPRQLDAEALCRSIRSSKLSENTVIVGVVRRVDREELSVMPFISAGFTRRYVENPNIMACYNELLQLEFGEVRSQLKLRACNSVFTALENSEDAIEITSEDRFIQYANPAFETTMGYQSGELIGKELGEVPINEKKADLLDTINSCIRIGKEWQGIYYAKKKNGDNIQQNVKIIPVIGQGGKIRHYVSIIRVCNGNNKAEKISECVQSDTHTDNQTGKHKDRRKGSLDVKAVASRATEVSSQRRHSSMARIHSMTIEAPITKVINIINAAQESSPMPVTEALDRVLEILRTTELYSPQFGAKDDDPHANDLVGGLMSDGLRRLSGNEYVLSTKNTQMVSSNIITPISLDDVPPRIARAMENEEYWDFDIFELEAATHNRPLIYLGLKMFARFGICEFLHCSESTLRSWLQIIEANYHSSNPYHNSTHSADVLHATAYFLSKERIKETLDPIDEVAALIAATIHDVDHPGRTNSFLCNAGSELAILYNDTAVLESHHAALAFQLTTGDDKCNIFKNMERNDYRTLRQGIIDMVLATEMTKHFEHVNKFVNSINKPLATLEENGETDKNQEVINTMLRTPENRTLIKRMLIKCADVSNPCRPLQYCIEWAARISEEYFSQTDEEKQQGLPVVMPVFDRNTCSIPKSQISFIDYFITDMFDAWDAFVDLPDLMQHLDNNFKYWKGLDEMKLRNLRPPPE
Text: as §1, §2, §3

Phosphodiesterase PDE1A = target: T4, Phosphodiesterase PDE1A (Homo sapiens, UniProt P54750); assay: Phosphodiesterase PDE1A enzyme assay; type: biochemical; settings: N=2, Example 3
T4 construct: host or cells: insect Sf9 cells
T4 sequence (P54750 whole entry): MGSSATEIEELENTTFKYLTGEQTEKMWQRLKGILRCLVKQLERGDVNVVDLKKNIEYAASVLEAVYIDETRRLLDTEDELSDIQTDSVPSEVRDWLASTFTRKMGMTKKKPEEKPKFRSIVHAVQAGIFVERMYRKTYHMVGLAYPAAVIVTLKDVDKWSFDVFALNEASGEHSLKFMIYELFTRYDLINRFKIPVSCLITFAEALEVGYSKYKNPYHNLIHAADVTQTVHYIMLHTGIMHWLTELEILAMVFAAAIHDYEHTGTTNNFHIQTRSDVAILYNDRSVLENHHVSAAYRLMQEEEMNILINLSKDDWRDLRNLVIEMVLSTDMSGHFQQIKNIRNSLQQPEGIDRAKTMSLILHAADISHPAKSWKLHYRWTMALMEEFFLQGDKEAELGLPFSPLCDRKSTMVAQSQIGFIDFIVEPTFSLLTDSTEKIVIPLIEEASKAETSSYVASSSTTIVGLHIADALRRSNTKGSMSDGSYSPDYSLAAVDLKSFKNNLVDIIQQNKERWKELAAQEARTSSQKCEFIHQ
Text: as §1
Phosphodiesterase PDE1A; Phosphodiesterase PDE5A; and Phosphodiesterase PDE9A2: • Source: Human recombinant insect Sf9 cells • Substrate: 0.10 μM […] • Vehicle: 1.00% DMSO • Significance Crit.: ≥50% of max stimulation or inhibition • Incubation Buffer: 10 mM Tris-HCl, pH 7.2, 10 mM MgCl2, 0.05% NaN3, 0.1% phosphate-free BSA • Quantitation Method: Quantitation of Fluorescein-GMP-IMAP • Pre-Incub. Time/Temp: 15 minutes @25° C. • Incubation Time/Temp: 30 minutes @25° C.
IC50 values are determined by a non-linear, least squares regression analysis using MathIQ™ (ID Business Solutions Ltd., UK). […] Where presented, the Hill coefficient (nH), defining the slope of the competitive binding curve, is calculated using MathIQ™. […]

## CNc1nc(Nc2ccccc2)nc(OCC(F)(F)C(F)F)n1 [compound of Formula (I), N^2-methyl-N^4-phenyl-6-(2,2,3,3-tetrafluoropropoxy)-1,3,5-triazine-2,4-diamine]
[1]
  PMA-induced ear thickening: prevents or reduces
  PMA-induced ear weight gain: prevents or reduces
[2]
  inhibition at 10 µM: 14%
[3]; BALB/c, mouse, ear skin / plasma, read-out: Concentration in the ear skin relative to plasma levels
  Kp: ~976
[3]
  Concentrations in plasma and ear skin: Significant concentrations
Phosphodiesterase PDE7A
  inhibition at 10 µM: 7%
Phosphodiesterase PDE8A1
  inhibition at 10 µM: 0%
Phosphodiesterase PDE1A
  inhibition at 10 µM: -8%
